Test: xn = mol fraction of the nth substance listed
Settings: 101 kPa

CCC[N+]1(C)CCCC1.O=S(=O)([N-]S(=O)(=O)C(F)(F)F)C(F)(F)F + O=C1CCCO1
electrical conductivity (278.15 K, x1 = 0.0657): 0.831 S/m | electrical conductivity (278.15 K, x1 = 0.1741): 0.965 S/m | electrical conductivity (288.15 K, x1 = 0.0657): 0.987 S/m | electrical conductivity (288.15 K, x1 = 0.1741): 1.18 S/m | electrical conductivity (288.15 K, x1 = 0.3874): 0.765 S/m | electrical conductivity (298.15 K, x1 = 0.0657): 1.14 S/m | electrical conductivity (298.15 K, x1 = 0.1741): 1.39 S/m | electrical conductivity (298.15 K, x1 = 0.3874): 0.979 S/m | electrical conductivity (308.15 K, x1 = 0.0657): 1.3 S/m | electrical conductivity (308.15 K, x1 = 0.3874): 1.22 S/m | electrical conductivity (318.15 K, x1 = 0.0657): 1.46 S/m | electrical conductivity (318.15 K, x1 = 0.1741): 1.86 S/m | electrical conductivity (318.15 K, x1 = 0.3874): 1.47 S/m | electrical conductivity (328.15 K, x1 = 0.1741): 2.12 S/m | electrical conductivity (328.15 K, x1 = 0.3874): 1.74 S/m | electrical conductivity (338.15 K, x1 = 0.0657): 1.8 S/m | electrical conductivity (338.15 K, x1 = 0.1741): 2.35 S/m | electrical conductivity (338.15 K, x1 = 0.3874): 2 S/m | electrical conductivity (348.15 K, x1 = 0.0657): 1.96 S/m | electrical conductivity (358.15 K, x1 = 0.1741): 2.82 S/m | electrical conductivity (358.15 K, x1 = 0.3874): 2.56 S/m
